These results are taken from publication PMC8069214, “Synthesis, Biological Evaluation, and Molecular Modeling of Aza-Crown Ethers” (Molecules, 2021).

What all share (format): cell-based
Assay [1] has as its system human neutrophils. Briefly: Inhibition of fMLF-induced [Ca2+]i flux in human neutrophils. The following applies: Neutrophil, 10 min preincubation, 5 nM fMLF, N.A. = no activity at < 50 µM, read-out: FPR1/FPR2 Agonist-Induced Δ[Ca^2+]i Neutrophils IC50. On the procedure: (§1) Since these compounds elevated neutrophil [Ca^2+]i, and cytosolic Ca^2+ flux is a key component of neutrophil activation, we evaluated if they could alter neutrophil activation by FPR1 or FPR2 agonists. Neutrophils and FPR-transfected HL60 cells were preincubated for 10 min with crown ether compounds, and [Ca^2+]i flux was stimulated with either an FPR1 agonist (fMLF for human neutrophils and FPR1-HL60 cells) or an FPR2 agonist (WKYMVM for FPR2-HL60 cells).
(§2) Changes in neutrophil intracellular Ca^2+ concentrations ([Ca^2+]i) were measured with a FlexStation 3 scanning fluorometer (Molecular Devices, Sunnyvale, CA, USA). Briefly, human neutrophils were suspended in HBSS^−, loaded with Fluo-4AM at a final concentration of 1.25 μg/mL, and incubated for 30 min in the dark at 37 °C. After dye loading, the cells were washed with HBSS^−, resuspended in HBSS^+, separated into aliquots, and loaded into the wells of flat-bottom, half-area well black microtiter plates (2 × 10^5 cells/well). To assess the direct effects of test compounds on Ca^2+ flux, the compounds were added to the wells (final concentration of DMSO was 1%), and changes in fluorescence were monitored (λex = 485 nm, λem = 538 nm) every 5 s for 240 s at room temperature after addition of the test compound. To evaluate inhibitory effects of the compounds on FPR1/FPR2-dependent Ca^2+ flux, the compounds were added to the wells (final concentration of DMSO was 1%) with cells (human neutrophils or FPR1/FPR2 HL60 cells). The samples were preincubated for 10 min, followed by addition of 5 nM fMLF (for human neutrophils or FPR1-HL60 cells) or 5 nM WKYMVM (for FPR2-HL60 cells). The maximum change in fluorescence, expressed in arbitrary units over baseline, was used to determine the agonist response. Responses were normalized to the response induced by 5 nM fMLF or 5 nM WKYMVM, which were assigned as 100%. Curve fitting (at least five or six points) and calculation of median effective concentration values (EC50 or IC50) were performed by nonlinear regression analysis of the dose–response curves generated using Prism 7 (GraphPad Software, Inc., San Diego, CA, USA). Efficacy was determined by comparing individual responses activated by the test compounds to that induced by a positive control (5 nM fMLF), which was assigned a value of 100%.

In another assay the target is T1, FPR1 (Homo sapiens, UniProt P21462).
T1 construct: expressed in transfected cells
T1 sequence (P21462 1-350): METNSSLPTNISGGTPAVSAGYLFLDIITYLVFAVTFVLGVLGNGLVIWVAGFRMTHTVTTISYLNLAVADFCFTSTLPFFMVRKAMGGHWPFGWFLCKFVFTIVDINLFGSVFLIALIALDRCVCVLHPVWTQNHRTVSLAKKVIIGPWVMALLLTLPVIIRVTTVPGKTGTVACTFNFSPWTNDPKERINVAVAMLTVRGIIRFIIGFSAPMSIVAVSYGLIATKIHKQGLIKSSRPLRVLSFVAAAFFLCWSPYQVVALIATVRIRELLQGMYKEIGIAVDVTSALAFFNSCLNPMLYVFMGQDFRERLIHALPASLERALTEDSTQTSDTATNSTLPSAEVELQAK
Briefly: Inhibition of fMLF-induced [Ca2+]i flux in FPR1-HL60 cells. The following applies: 10 min preincubation, 5 nM fMLF; N.A. = no activity at < 50 µM; read-out: FPR1/FPR2 Agonist-Induced Δ[Ca^2+]i FPR1-HL60 IC50. As for the experimental part:
as §1
(§3) Human promyelocytic leukemia HL60 cells stably transfected with FPR1 (FPR1-HL60 cells) or FPR2 (FPR2-HL60 cells) (kind gifts from Dr. Marie-Josephe Rabiet, INSERM, Grenoble, France) were cultured in RPMI 1640 medium supplemented with 10% heat-inactivated fetal calf serum, 10 mM HEPES, 100 μg/mL streptomycin, 100 U/mL penicillin, and G418 (1 mg/mL). Although stable cell lines are cultured under G418 selection pressure, G418 may affect some assays, so it was removed in the last round of culture before assays were performed.
as §2

A further assay concerns the target T2, FPR2 (Homo sapiens, UniProt P25090).
T2 construct: expressed in transfected cells
T2 sequence (P25090 1-351): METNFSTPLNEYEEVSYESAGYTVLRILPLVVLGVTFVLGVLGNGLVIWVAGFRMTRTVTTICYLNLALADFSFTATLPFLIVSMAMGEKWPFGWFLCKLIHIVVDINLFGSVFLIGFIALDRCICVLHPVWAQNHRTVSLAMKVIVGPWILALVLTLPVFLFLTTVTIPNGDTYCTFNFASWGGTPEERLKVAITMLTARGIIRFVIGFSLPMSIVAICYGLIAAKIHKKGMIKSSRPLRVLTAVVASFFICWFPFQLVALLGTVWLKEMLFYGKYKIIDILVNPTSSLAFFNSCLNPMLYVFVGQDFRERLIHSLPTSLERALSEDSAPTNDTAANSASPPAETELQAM
Briefly: Inhibition of WKYMVM-induced [Ca2+]i flux in FPR2-HL60 cells. To be noted: 10 min preincubation, 5 nM WKYMVM; N.A. = no activity at < 50 µM; read-out: FPR1/FPR2 Agonist-Induced Δ[Ca^2+]i FPR2-HL60 IC50. On the procedure:
as §1, §3, §2

Assay [2] has as its system human neutrophils. In words: PMA-induced ROS production (L-012 chemiluminescence). The following applies: Neutrophil, 200 nM PMA, N.A. = no activity at < 50 µM. An excerpt:
To evaluate if the crown ethers could also disrupt GPCR-independent functional activity, we evaluated the effects of these compounds on phorbol 12-myristate 13-acetate (PMA)-stimulated reactive oxygen species (ROS) production. […] A representative concentration-dependent response for the inhibition of PMA-stimulated neutrophil ROS production by compound 15 is shown in Figure 2B. Since ROS production in neutrophils also requires increased [Ca^2+]i, the results again confirm that the impact of these compounds on Ca^2+ flux kinetics can alter neutrophil function.
ROS production was determined by monitoring L-012-enhanced chemiluminescence, which represents a sensitive and reliable method for detecting superoxide anion (O2^−.) production. Human neutrophils were resuspended at 2 × 10^5 cells/mL in HBSS^+ supplemented with 40 µM L-012. Cells (100 µL) were aliquoted into wells of 96-well flat-bottomed microtiter plates containing test compounds at different concentrations (final DMSO concentration of 1%). Cells were preincubated for 10 min, and 200 nM PMA was added to each well to stimulate ROS production. Luminescence was monitored for 120 min (2-min intervals) at 37 °C using a Fluroscan Ascent FL microtiter plate reader (Thermo Electron, Waltham, MA, USA). The curve of light intensity (in relative luminescence units) was plotted against time, and the area under the curve was calculated as total luminescence. The compound concentration that inhibited ROS production by 50% of the PMA-induced response (positive control) was determined by graphing the percentage inhibition of ROS production versus the logarithm of concentration of test sample (IC50). Each curve was determined using five to seven concentrations.

Consider `O=C(CC12CC3CC(CC(C3)C1)C2)N1CCOCCOCCN(C(=O)CC23CC4CC(CC(C4)C2)C3)CCOCCOCC1` [Compound 17, N,N’-bis[2-(1-adamantyl)acetyl]-4,13-diaza-18-crown-6], for which the IC50 with human neutrophils [1] amounted to 1.5 ± 0.4 µM; at FPR1 it was 3.7 ± 0.7 µM; at FPR2, 7.6 ± 1.9 µM; in the assay with human neutrophils [2] it was 8.2 ± 0.1 µM.

Regarding `O=C(N1CCOCCOCCN(C(=O)C23CC4CC(CC(C4)C2)C3)CCOCC1)C12CC3CC(CC(C3)C1)C2` [Compound 13, N,N’-bis[1-oxo-1-(1-adamantyl)methyl]-4,10-diaza-15-crown-5], the IC50 amounted to 7.4 ± 1.3 µM in the assay on human neutrophils [1], 16.5 ± 3.2 µM at FPR1, 32.6 ± 4.5 µM on FPR2 and 25.9 ± 2.7 µM in the assay with human neutrophils [2].

`O=C(N1CCOCCOCCOCCN(C(=O)C23CC4CC(CC(C4)C2)C3)CCOCC1)C12CC3CC(CC(C3)C1)C2` [Compound 14, N,N’-bis[1-oxo-1-(1-adamantyl)methyl]-4,10-diaza-18-crown-6]: the IC50 in the assay with human neutrophils [1] was determined as 3.5 ± 0.4 µM; at FPR1, 11.6 ± 2.1 µM; at FPR2, 8.3 ± 2.3 µM; in the assay with human neutrophils [2], 21.9 ± 2.2 µM.

Consider `O=C(CC12CC3CC(CC(C3)C1)C2)N1CCOCCOCCN(C(=O)CC23CC4CC(CC(C4)C2)C3)CCOCC1` [Compound 15, N,N’-bis[2-(1-adamantyl)acetyl]-4,10-diaza-15-crown-5], for which the IC50 with human neutrophils [1] was 4.1 ± 0.6 µM; on FPR1, 4.8 ± 0.9 µM; on FPR2, 7.2 ± 1.7 µM; in the assay with human neutrophils [2], 4.1 ± 0.1 µM.
